Test results from ChEMBL document CHEMBL3414527, “Engineering potent and selective analogues of GpTx-1, a tarantula venom peptide antagonist of the Na(V)1.7 sodium channel” (J Med Chem, 2015).
pIC50: −log10 of the molar value. Bridge positions count the residues as written; N and C are the ends. Peptide text beside a SMILES is read from it.

Legend:
[1] = target: Sodium channel protein type 9 subunit alpha (Homo sapiens, UniProt Q15858); experiment: Inhibition of human NaV1.7 at -140 mV holding potential by whole-cell patch clamp assay
[2] = target: Sodium channel protein type 5 subunit alpha (Homo sapiens, UniProt Q14524); experiment: Inhibition of human NaV1.5 at -140 mV holding potential by whole-cell patch clamp assay
Sodium channel protein type 5 subunit alpha, sequence (Q14524 whole entry): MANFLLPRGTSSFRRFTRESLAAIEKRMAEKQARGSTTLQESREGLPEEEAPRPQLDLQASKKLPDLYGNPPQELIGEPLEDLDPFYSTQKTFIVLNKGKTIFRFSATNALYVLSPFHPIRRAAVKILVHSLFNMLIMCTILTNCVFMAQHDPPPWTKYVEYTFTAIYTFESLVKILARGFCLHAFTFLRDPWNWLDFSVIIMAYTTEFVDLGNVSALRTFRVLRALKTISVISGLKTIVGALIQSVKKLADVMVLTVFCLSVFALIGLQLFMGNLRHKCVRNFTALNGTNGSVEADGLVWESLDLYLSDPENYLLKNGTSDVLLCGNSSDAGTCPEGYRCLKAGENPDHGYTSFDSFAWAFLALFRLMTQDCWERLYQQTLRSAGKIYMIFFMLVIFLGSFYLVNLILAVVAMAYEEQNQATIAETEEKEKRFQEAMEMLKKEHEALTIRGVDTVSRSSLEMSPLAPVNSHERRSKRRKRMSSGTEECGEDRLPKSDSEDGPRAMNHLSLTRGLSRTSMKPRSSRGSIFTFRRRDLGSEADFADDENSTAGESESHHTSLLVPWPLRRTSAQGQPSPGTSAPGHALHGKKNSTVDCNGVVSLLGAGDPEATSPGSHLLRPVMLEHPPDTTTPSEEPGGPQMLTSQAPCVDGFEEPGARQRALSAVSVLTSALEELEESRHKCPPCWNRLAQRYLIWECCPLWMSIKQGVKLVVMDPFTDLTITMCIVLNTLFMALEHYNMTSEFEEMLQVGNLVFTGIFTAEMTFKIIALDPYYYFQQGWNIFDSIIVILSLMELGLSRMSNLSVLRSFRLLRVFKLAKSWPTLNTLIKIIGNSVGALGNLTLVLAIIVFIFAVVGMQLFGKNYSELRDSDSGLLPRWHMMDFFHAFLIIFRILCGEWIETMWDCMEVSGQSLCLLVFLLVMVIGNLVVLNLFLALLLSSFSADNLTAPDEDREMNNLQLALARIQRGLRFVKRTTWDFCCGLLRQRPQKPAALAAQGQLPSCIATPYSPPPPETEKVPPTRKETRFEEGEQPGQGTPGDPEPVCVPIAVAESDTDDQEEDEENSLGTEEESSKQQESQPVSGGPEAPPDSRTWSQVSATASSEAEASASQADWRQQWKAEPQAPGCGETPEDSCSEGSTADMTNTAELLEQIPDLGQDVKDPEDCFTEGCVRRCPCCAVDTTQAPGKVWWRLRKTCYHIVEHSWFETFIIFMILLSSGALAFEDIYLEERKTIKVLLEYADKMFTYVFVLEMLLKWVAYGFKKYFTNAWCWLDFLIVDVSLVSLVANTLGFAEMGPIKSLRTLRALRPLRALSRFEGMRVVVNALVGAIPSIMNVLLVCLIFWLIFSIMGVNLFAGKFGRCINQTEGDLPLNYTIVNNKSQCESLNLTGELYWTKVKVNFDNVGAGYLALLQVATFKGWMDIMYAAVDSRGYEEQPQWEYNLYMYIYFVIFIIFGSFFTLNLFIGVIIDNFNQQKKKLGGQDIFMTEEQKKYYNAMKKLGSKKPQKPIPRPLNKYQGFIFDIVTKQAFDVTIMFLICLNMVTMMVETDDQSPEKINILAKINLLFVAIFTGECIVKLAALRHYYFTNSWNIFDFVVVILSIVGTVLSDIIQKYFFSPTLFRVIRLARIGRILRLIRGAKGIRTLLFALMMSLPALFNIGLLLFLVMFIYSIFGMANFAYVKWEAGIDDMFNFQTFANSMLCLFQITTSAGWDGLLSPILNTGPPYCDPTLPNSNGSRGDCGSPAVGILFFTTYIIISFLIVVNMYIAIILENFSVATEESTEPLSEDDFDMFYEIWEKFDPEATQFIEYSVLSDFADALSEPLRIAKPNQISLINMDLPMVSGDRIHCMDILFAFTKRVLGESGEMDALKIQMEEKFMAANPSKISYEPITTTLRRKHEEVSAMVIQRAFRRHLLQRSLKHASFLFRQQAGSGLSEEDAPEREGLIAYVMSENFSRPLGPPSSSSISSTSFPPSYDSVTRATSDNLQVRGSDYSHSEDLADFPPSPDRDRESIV

Sodium channel protein type 9 subunit alpha, sequence (Q15858 whole entry): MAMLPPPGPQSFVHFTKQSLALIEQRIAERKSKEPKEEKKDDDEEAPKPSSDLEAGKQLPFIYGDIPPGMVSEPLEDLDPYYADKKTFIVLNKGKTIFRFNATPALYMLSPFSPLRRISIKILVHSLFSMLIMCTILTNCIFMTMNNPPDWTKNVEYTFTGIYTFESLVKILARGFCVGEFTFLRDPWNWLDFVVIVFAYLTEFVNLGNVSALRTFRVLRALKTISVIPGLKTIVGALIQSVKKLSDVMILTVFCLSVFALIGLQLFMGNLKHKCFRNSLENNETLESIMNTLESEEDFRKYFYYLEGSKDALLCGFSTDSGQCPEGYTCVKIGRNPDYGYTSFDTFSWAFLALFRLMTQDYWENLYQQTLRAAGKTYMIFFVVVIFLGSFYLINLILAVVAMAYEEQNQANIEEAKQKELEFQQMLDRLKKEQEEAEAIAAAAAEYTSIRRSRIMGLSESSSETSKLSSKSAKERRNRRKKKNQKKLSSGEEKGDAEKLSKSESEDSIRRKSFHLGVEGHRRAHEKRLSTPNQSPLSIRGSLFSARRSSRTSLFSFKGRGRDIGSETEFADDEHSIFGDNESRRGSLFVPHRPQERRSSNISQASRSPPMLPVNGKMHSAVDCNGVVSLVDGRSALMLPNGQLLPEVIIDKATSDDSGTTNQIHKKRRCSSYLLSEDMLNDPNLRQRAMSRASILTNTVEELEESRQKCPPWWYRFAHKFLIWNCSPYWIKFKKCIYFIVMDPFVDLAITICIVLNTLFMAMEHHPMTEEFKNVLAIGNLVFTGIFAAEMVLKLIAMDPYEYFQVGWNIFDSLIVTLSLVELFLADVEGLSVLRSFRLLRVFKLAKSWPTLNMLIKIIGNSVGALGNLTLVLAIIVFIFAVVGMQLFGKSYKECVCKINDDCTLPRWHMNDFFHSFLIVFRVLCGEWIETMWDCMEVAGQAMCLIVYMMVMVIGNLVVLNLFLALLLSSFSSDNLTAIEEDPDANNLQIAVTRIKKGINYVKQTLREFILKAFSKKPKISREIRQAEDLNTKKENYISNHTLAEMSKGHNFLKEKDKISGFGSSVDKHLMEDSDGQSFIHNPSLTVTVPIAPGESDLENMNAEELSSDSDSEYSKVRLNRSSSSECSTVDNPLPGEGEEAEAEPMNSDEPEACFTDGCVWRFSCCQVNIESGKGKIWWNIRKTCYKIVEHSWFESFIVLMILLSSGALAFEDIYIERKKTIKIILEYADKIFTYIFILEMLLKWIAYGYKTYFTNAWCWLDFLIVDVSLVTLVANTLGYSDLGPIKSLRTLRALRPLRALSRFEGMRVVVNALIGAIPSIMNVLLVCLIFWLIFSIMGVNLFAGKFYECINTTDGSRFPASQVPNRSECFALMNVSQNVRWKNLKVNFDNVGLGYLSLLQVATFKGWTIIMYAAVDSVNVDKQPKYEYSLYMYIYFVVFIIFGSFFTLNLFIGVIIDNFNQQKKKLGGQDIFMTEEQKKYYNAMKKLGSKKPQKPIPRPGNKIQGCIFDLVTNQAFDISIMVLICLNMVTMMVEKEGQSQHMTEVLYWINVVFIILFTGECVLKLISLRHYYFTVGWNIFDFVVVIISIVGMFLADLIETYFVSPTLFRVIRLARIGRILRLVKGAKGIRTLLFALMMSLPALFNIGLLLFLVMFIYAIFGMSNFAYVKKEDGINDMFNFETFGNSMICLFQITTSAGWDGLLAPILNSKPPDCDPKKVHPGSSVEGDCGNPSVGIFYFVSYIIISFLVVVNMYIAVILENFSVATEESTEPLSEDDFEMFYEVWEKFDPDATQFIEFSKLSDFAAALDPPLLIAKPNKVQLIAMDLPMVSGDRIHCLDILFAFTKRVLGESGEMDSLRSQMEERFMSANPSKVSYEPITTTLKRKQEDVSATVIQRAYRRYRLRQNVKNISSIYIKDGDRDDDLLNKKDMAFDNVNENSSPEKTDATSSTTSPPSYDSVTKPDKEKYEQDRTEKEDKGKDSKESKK

SMILES	pIC50 [1]	pIC50 [2]
CC[C@H](C)[C@@H]1NC(=O)[C@@H]2CSSC[C@@H]3NC(=O)[C@H](C(C)C)NC(=O)[C@H](CC(C)C)NC(=O)[C@H](CC(N)=O)NC(=O)[C@@H]4CCCN4C(=O)[C@H](CCCNC(=N)N)NC(=O)[C@H](CSSC[C@H](NC(=O)[C@@H](N)CC(=O)O)C(=O)N[C@@H](CC(C)C)C(=O)NCC(=O)N[C@@H](CC4CCCCC4)C(=O)N[C@@H](CCSC)C(=O)N[C@@H](CCCNC(=N)N)C(=O)N[C@@H](CCCCN)C(=O)N2)NC(=O)[C@H](CSSC[C@@H](C(=O)N[C@@H](CCCCN)C(=O)N[C@@H](Cc2ccc(O)cc2)C(=O)N[C@H](C(=O)N[C@@H](Cc2ccccc2)C(N)=O)C(C)C)NC(=O)[C@H](Cc2c[nH]c4ccccc24)NC(=O)[C@H](CCCCN)NC(=O)[C@H](Cc2cnc[nH]2)NC(=O)[C@H]([C@@H](C)O)NC(=O)[C@H](CCCNC(=N)N)NC(=O)[C@H](CO)NC3=O)NC(=O)[C@H](CCCCN)NC(=O)[C@H](CC(=O)O)NC(=O)[C@H](CC(N)=O)NC(=O)[C@H](CC(=O)O)NC(=O)[C@@H]2CCCN2C1=O	8.40	5.46
CC[C@@H]1NC(=O)CNC(=O)[C@H](CC(C)C)NC(=O)[C@@H](NC(=O)[C@@H](N)CC(=O)O)CSSC[C@@H]2NC(=O)[C@@H]3CSSC[C@@H](C(=O)N[C@@H](CCCCN)C(=O)N[C@@H](Cc4ccc(O)cc4)C(=O)N[C@H](C(=O)N[C@@H](Cc4ccccc4)C(N)=O)C(C)C)NC(=O)[C@H](Cc4c[nH]c5ccccc45)NC(=O)[C@H](CCCCN)NC(=O)[C@H](Cc4cnc[nH]4)NC(=O)[C@H]([C@@H](C)O)NC(=O)[C@H](CCCNC(=N)N)NC(=O)[C@H](CO)NC(=O)[C@H](CSSC[C@H](NC(=O)[C@H](CCCCN)NC(=O)[C@H](CCCNC(=N)N)NC(=O)[C@H](CCSC)NC1=O)C(=O)N[C@@H]([C@@H](C)CC)C(=O)N1CCC[C@H]1C(=O)N[C@@H](CC(=O)O)C(=O)N[C@@H](CC(N)=O)C(=O)N[C@@H](CC(=O)O)C(=O)N[C@@H](CCCCN)C(=O)N3)NC(=O)[C@H](C(C)C)NC(=O)[C@H](CC(C)C)NC(=O)[C@H](CC(N)=O)NC(=O)[C@@H]1CCCN1C(=O)[C@H](CCCNC(=N)N)NC2=O	7.10	< 5.00
CC[C@H](C)[C@@H]1NC(=O)[C@@H]2CSSC[C@@H]3NC(=O)[C@H](C(C)C)NC(=O)[C@H](CC(C)C)NC(=O)[C@H](CC(N)=O)NC(=O)[C@@H]4CCCN4C(=O)[C@H](CCCNC(=N)N)NC(=O)[C@H](CSSC[C@H](NC(=O)[C@@H](N)CC(=O)O)C(=O)N[C@@H](CC(C)C)C(=O)NCC(=O)N[C@@H](Cc4ccccc4)C(=O)N[C@@H](CCSC)C(=O)N[C@@H](CCCNC(=N)N)C(=O)N[C@@H](CCCCN)C(=O)N2)NC(=O)[C@H](CSSC[C@@H](C(=O)N[C@@H](CCCCN)C(=O)N[C@@H](Cc2ccc(O)cc2)C(=O)N[C@H](C(=O)N[C@@H](Cc2ccccc2)C(N)=O)C(C)C)NC(=O)[C@H](Cc2c[nH]c4ccccc24)NC(=O)[C@H](CCCCN)NC(=O)[C@H](Cc2cnc[nH]2)NC(=O)[C@H](C)NC(=O)[C@H](CCCNC(=N)N)NC(=O)[C@H](CO)NC3=O)NC(=O)[C@H](CCCCN)NC(=O)[C@H](CC(=O)O)NC(=O)[C@H](CC(N)=O)NC(=O)[C@H](CC(=O)O)NC(=O)[C@@H]2CCCN2C1=O (H-DCLGFMRKCIPDNDKCCRPNLVCSRAHKWCKYVF-NH2; disulfide 2-17, 9-23, 16-30)	6.59	< 5.30
CC[C@H](C)[C@@H]1NC(=O)[C@@H]2CSSC[C@@H]3NC(=O)[C@H](C(C)C)NC(=O)[C@H](CC(C)C)NC(=O)[C@H](CC(N)=O)NC(=O)[C@@H]4CCCN4C(=O)[C@H](CCCNC(=N)N)NC(=O)[C@H](CSSC[C@H](NC(=O)[C@@H](N)CC(=O)O)C(=O)N[C@@H](CC(C)C)C(=O)NCC(=O)N[C@@H](Cc4ccccc4)C(=O)N[C@@H](CCSC)C(=O)N[C@@H](CCCNC(=N)N)C(=O)N[C@@H](CCCCN)C(=O)N2)NC(=O)[C@H](CSSC[C@@H](C(=O)N[C@@H](CCCCN)C(=O)N[C@@H](Cc2ccc(O)cc2)C(=O)N[C@H](C(=O)N[C@@H](Cc2ccccc2)C(N)=O)C(C)C)NC(=O)[C@H](Cc2c[nH]c4ccccc24)NC(=O)[C@H](CCCCN)NC(=O)[C@H](Cc2cnc[nH]2)NC(=O)[C@H]([C@@H](C)O)NC(=O)[C@H](CCCNC(=N)N)NC(=O)[C@H](CO)NC3=O)NC(=O)[C@H](CCCCN)NC(=O)[C@H](CC(=O)O)NC(=O)[C@H](C)NC(=O)[C@H](CC(=O)O)NC(=O)[C@@H]2CCCN2C1=O (H-DCLGFMRKCIPDADKCCRPNLVCSRTHKWCKYVF-NH2; disulfide 2-17, 9-23, 16-30)	6.72	< 5.30
CC[C@H](C)[C@@H]1NC(=O)[C@@H]2CSSC[C@@H]3NC(=O)[C@H](C(C)C)NC(=O)[C@H](CC(C)C)NC(=O)[C@H](CC(N)=O)NC(=O)[C@@H]4CCCN4C(=O)[C@H](CCCNC(=N)N)NC(=O)[C@H](CSSC[C@H](NC(=O)[C@@H](N)CC(=O)O)C(=O)N[C@@H](CC(C)C)C(=O)NCC(=O)N[C@@H](Cc4ccccc4)C(=O)N[C@@H](CCSC)C(=O)N[C@@H](CCCNC(=N)N)C(=O)N[C@@H](CCCCN)C(=O)N2)NC(=O)[C@H](CSSC[C@@H](C(=O)N[C@@H](CCCCN)C(=O)N[C@@H](Cc2ccc(O)cc2)C(=O)N[C@@H](C)C(=O)N[C@@H](Cc2ccccc2)C(N)=O)NC(=O)[C@H](Cc2c[nH]c4ccccc24)NC(=O)[C@H](CCCCN)NC(=O)[C@H](Cc2cnc[nH]2)NC(=O)[C@H]([C@@H](C)O)NC(=O)[C@H](CCCNC(=N)N)NC(=O)[C@H](CO)NC3=O)NC(=O)[C@H](CCCCN)NC(=O)[C@H](CC(=O)O)NC(=O)[C@H](CC(N)=O)NC(=O)[C@H](CC(=O)O)NC(=O)[C@@H]2CCCN2C1=O (H-DCLGFMRKCIPDNDKCCRPNLVCSRTHKWCKYAF-NH2; disulfide 2-17, 9-23, 16-30)	6.77	< 5.30
CC[C@H](C)[C@@H]1NC(=O)[C@@H]2CSSC[C@@H]3NC(=O)[C@H](C(C)C)NC(=O)[C@H](CC(C)C)NC(=O)[C@H](CC(N)=O)NC(=O)[C@@H]4CCCN4C(=O)[C@H](CCCNC(=N)N)NC(=O)[C@H](CSSC[C@H](NC(=O)[C@@H](N)CC(=O)O)C(=O)N[C@@H](CC(C)C)C(=O)NCC(=O)N[C@@H](C)C(=O)N[C@@H](Cc4cccc5ccccc45)C(=O)N[C@@H](CCCNC(=N)N)C(=O)N[C@@H](CCCCN)C(=O)N2)NC(=O)[C@H](CSSC[C@@H](C(=O)N[C@@H](CCCCN)C(=O)N[C@@H](Cc2ccc(O)cc2)C(=O)N[C@H](C(=O)N[C@@H](Cc2ccccc2)C(N)=O)C(C)C)NC(=O)[C@H](Cc2c[nH]c4ccccc24)NC(=O)[C@H](CCCCN)NC(=O)[C@H](Cc2cnc[nH]2)NC(=O)[C@H]([C@@H](C)O)NC(=O)[C@H](CCCNC(=N)N)NC(=O)[C@H](CO)NC3=O)NC(=O)[C@H](CCCCN)NC(=O)[C@H](CC(=O)O)NC(=O)[C@H](CC(N)=O)NC(=O)[C@H](CC(=O)O)NC(=O)[C@@H]2CCCN2C1=O	8.52	5.44
CC[C@H](C)[C@@H]1NC(=O)[C@@H]2CSSC[C@@H]3NC(=O)[C@H](C(C)C)NC(=O)[C@H](CC(C)C)NC(=O)[C@H](CC(N)=O)NC(=O)[C@@H]4CCCN4C(=O)[C@H](CCCNC(=N)N)NC(=O)[C@H](CSSC[C@H](NC(=O)[C@@H](N)CC(=O)O)C(=O)N[C@@H](CC(C)C)C(=O)NCC(=O)N[C@@H](Cc4ccccc4)C(=O)N[C@@H](CC(C)C)C(=O)N[C@@H](CCCNC(=N)N)C(=O)N[C@@H](CCCCN)C(=O)N2)NC(=O)[C@H](CSSC[C@@H](C(=O)N[C@@H](CCCCN)C(=O)N[C@@H](Cc2ccc(O)cc2)C(=O)N[C@H](C(=O)N[C@@H](Cc2ccccc2)C(N)=O)C(C)C)NC(=O)[C@H](Cc2c[nH]c4ccccc24)NC(=O)[C@H](CCCCN)NC(=O)[C@H](Cc2cnc[nH]2)NC(=O)[C@H]([C@@H](C)O)NC(=O)[C@H](CCCNC(=N)N)NC(=O)[C@H](CO)NC3=O)NC(=O)[C@H](CCCCN)NC(=O)[C@H](CC(=O)O)NC(=O)[C@H](CC(N)=O)NC(=O)[C@H](CC(=O)O)NC(=O)[C@@H]2CCCN2C1=O (H-DCLGFLRKCIPDNDKCCRPNLVCSRTHKWCKYVF-NH2; disulfide 2-17, 9-23, 16-30)	7.62	< 5.00
CC[C@H](C)[C@@H]1NC(=O)[C@@H]2CSSC[C@@H]3NC(=O)[C@H](C(C)C)NC(=O)[C@H](CC(C)C)NC(=O)[C@H](CC(N)=O)NC(=O)[C@@H]4CCCN4C(=O)[C@H](CCCNC(=N)N)NC(=O)[C@H](CSSC[C@H](NC(=O)[C@@H](N)CC(=O)O)C(=O)N[C@@H](CC(C)C)C(=O)NCC(=O)N(C)[C@@H](CC(C)C)C(=O)N[C@@H](CCSC)C(=O)N[C@@H](CCCNC(=N)N)C(=O)N[C@@H](CCCCN)C(=O)N2)NC(=O)[C@H](CSSC[C@@H](C(=O)N[C@@H](CCCCN)C(=O)N[C@@H](Cc2ccc(O)cc2)C(=O)N[C@H](C(=O)N[C@@H](Cc2ccccc2)C(N)=O)C(C)C)NC(=O)[C@H](Cc2c[nH]c4ccccc24)NC(=O)[C@H](CCCCN)NC(=O)[C@H](Cc2cnc[nH]2)NC(=O)[C@H]([C@@H](C)O)NC(=O)[C@H](CCCNC(=N)N)NC(=O)[C@H](CO)NC3=O)NC(=O)[C@H](CCCCN)NC(=O)[C@H](CC(=O)O)NC(=O)[C@H](CC(N)=O)NC(=O)[C@H](CC(=O)O)NC(=O)[C@@H]2CCCN2C1=O	7.60	< 5.00
CC[C@H](C)[C@@H]1NC(=O)[C@@H]2CSSC[C@@H]3NC(=O)[C@H](C(C)C)NC(=O)[C@H](CC(C)C)NC(=O)[C@H](CC(N)=O)NC(=O)[C@@H]4CCCN4C(=O)[C@H](CCCNC(=N)N)NC(=O)[C@H](CSSC[C@H](NC(=O)[C@@H](N)CC(=O)O)C(=O)N[C@@H](C)C(=O)NCC(=O)N[C@@H](Cc4ccccc4)C(=O)N[C@@H](CCSC)C(=O)N[C@@H](CCCNC(=N)N)C(=O)N[C@@H](CCCCN)C(=O)N2)NC(=O)[C@H](CSSC[C@@H](C(=O)N[C@@H](CCCCN)C(=O)N[C@@H](Cc2ccc(O)cc2)C(=O)N[C@H](C(=O)N[C@@H](Cc2ccccc2)C(N)=O)C(C)C)NC(=O)[C@H](Cc2c[nH]c4ccccc24)NC(=O)[C@H](CCCCN)NC(=O)[C@H](Cc2cnc[nH]2)NC(=O)[C@H]([C@@H](C)O)NC(=O)[C@H](CCCNC(=N)N)NC(=O)[C@H](CO)NC3=O)NC(=O)[C@H](CCCCN)NC(=O)[C@H](CC(=O)O)NC(=O)[C@H](CC(N)=O)NC(=O)[C@H](CC(=O)O)NC(=O)[C@@H]2CCCN2C1=O (H-DCAGFMRKCIPDNDKCCRPNLVCSRTHKWCKYVF-NH2; disulfide 2-17, 9-23, 16-30)	6.37	< 5.30
